Assay results reported in patent publication US9528156B2, “Method for determining the predisposition of a patient to changed biotransformation and to the development of undesired drug effects in a treatment of the patient with atrovastatin” (Robert Bosch GmbH, priority 2009, dated 2016).

Columns and labels:
UGT1A1 = target: T1, UGT1A1 (Homo sapiens, UniProt P22309); assay: ATV lactonization by recombinant UGT1A1 (LC-MS); assay type: in vitro ADME; settings: among various recombinant UGT enzymes; substrate 0.6 μM and 6 μM
T1 sequence (P22309 26-533): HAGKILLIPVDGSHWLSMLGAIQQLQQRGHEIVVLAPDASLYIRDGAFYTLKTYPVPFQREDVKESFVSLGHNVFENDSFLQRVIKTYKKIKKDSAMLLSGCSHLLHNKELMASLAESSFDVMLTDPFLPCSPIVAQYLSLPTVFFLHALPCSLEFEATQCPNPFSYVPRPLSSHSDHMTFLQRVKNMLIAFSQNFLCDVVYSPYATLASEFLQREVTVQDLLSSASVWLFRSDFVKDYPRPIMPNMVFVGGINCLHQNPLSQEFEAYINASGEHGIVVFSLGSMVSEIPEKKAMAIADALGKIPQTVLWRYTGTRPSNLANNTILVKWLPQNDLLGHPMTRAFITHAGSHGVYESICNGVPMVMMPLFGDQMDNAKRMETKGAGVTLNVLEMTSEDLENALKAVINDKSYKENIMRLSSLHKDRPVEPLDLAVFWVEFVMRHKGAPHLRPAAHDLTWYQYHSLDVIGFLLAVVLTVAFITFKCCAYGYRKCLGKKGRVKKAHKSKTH
Description: (§1) The reaction is started by addition of 10 mM UDP glucuronic acid, the cosubstrate of the UDP glucuronosyl transferases (UGT). The samples were incubated for 30 minutes. The reaction was stopped by addition of 25 μl of ice-cold 250 mM formic acid in acetonitrile and the vortexed samples were immediately placed on ice. […] The samples were centrifuged for 5 minutes at 13,000 rpm and placed in glass vessels for the LC/MS measurement.
(§2) The samples are separated on an XBridge Shield RP18 3.5 μm column with a C8 precolumn with a 1 mM formic acid and acetonitrile gradient for 23 minutes at 30° C. The masses are detected by HCT Esquire plus mass spectrometer, this being after electrospray ionization of the substances separated by the column.

recombinant UGT1A3 = target: T2, recombinant UGT1A3 (Homo sapiens, UniProt P35503); settings: among various recombinant UGT enzymes; substrate 0.6 μM and 6 μM
T2 sequence (P35503 29-534): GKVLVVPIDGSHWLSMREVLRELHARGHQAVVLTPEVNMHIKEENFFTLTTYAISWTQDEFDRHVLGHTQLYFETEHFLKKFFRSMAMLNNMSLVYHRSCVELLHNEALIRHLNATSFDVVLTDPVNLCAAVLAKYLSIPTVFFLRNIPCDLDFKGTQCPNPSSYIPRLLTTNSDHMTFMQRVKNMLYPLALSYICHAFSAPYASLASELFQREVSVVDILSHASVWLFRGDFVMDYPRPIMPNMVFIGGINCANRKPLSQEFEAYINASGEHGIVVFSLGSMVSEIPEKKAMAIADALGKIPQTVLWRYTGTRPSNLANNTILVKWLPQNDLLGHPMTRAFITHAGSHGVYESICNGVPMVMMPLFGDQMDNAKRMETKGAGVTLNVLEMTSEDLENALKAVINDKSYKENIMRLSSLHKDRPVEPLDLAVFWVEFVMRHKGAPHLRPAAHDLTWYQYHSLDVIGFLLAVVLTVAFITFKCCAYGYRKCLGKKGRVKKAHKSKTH
Description: as §1, §2

UGT1A3 = settings: human liver microsomes, genotype-phenotype correlation
Description: as §1, §2

activity for the catalysis of the ATV lactonization (UGT1A1): only low activity
specific activity for the catalysis of the ATV lactonization (recombinant UGT1A3): highest specific activity
activity for ATV lactonization in homozygotic UGT1A3*2 carriers compared to wild type samples (UGT1A3): increased twofold
SMILES: CC(C)c1c(C(=O)Nc2ccccc2)c(-c2ccccc2)c(-c2ccc(F)cc2)n1CC[C@@H](O)C[C@@H](O)CC(=O)O [atorvastatin]
